Assay results reported in patent publication US12077503B2, “Substituted cyclic amides and their use as herbicides” (FMC CORPORATION, priority 2015, dated 2024).
Where two headings read alike, the source gives them in different places.

Legend:
Assay in all cases: Test A postemergence
Type in all cases: in vivo
[1] = tested on: barnyardgrass (Echinochloa crus-galli); settings: Echinochloa crus-galli, post-emergence, 240 h; for pest or weed control at 125 g/ha: 125 g ai/ha; for pest or weed control at 500 g/ha: 500 g ai/ha
Summary of the method: (§1)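 Each rating is a visual injury score from 0 to 100 given about 10 d after treatment, judged against untreated controls kept alongside in the greenhouse. In loam soil–sand blend, seeds got a preemergence directed soil spray, while postemergence plants were 2 to 10 cm tall at spraying.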

[2] = tested on: wheat (Triticum aestivum); settings: Triticum aestivum, post-emergence, 240 h; for plant injury at 500 g/ha: 500 g ai/ha; for plant injury at 125 g/ha: 125 g ai/ha
Summary of the method: as §1

[3] = tested on: ragweed (common ragweed, Ambrosia elatior); settings: Ambrosia artemisiifolia, post-emergence, 240 h; for pest or weed control at 125 g/ha: 125 g ai/ha; for pest or weed control at 500 g/ha: 500 g ai/ha
Summary of the method: as §1

[4] = tested on: ryegrass, Italian (Italian ryegrass, Lolium multiflorum); settings: Lolium multiflorum, post-emergence, 240 h; for pest or weed control at 125 g/ha: 125 g ai/ha; for pest or weed control at 500 g/ha: 500 g ai/ha
Summary of the method: as §1

[5] = tested on: blackgrass (Alopecurus myosuroides); settings: Alopecurus myosuroides, post-emergence, 240 h; for pest or weed control at 125 g/ha: 125 g ai/ha; for pest or weed control at 500 g/ha: 500 g ai/ha
Summary of the method: as §1

[6] = tested on: giant foxtail (Setaria faberii); settings: Setaria faberi, post-emergence, 240 h; for pest or weed control at 125 g/ha: 125 g ai/ha; for pest or weed control at 500 g/ha: 500 g ai/ha
Summary of the method: as §1

[7] = postemergence, visual injury vs untreated controls after approx. 10 d, 0 = no effect, 100 = complete control, read-out: Barnyardgrass plant response rating (0 to 100 scale)
[8] = Postemergence, visual injury, 0 to 100 scale (0 no effect, 100 complete control), approx. 10 d, read-out: Plant response rating, Barnyardgrass
[9] = Postemergence, visual injury, 0 to 100 scale (0 no effect, 100 complete control), approx. 10 d, read-out: Plant response rating, Wheat
[10] = postemergence, visual injury vs untreated controls after approx. 10 d, 0 = no effect, 100 = complete control, read-out: Ragweed plant response rating (0 to 100 scale)
[11] = Postemergence, visual injury, 0 to 100 scale (0 no effect, 100 complete control), approx. 10 d, read-out: Plant response rating, Ragweed
[12] = postemergence, visual injury vs untreated controls after approx. 10 d, 0 = no effect, 100 = complete control, read-out: Ryegrass, Italian plant response rating (0 to 100 scale)
[13] = Postemergence, visual injury, 0 to 100 scale (0 no effect, 100 complete control), approx. 10 d, read-out: Plant response rating, Ryegrass, Italian
[14] = postemergence, visual injury vs untreated controls after approx. 10 d, 0 = no effect, 100 = complete control, read-out: Blackgrass plant response rating (0 to 100 scale)
[15] = Postemergence, visual injury, 0 to 100 scale (0 no effect, 100 complete control), approx. 10 d, read-out: Plant response rating, Blackgrass
[16] = postemergence, visual injury vs untreated controls after approx. 10 d, 0 = no effect, 100 = complete control, read-out: Foxtail, Giant plant response rating (0 to 100 scale)
[17] = Postemergence, visual injury, 0 to 100 scale (0 no effect, 100 complete control), approx. 10 d, read-out: Plant response rating, Foxtail, Giant
[18] = postemergence, 0 to 100 scale, 0 is no effect, 100 is complete control, read-out: Barnyardgrass plant response rating
[19] = postemergence, visual injury vs untreated controls after approx. 10 d, 0 = no effect, 100 = complete control, read-out: Wheat plant response rating (0 to 100 scale)
[20] = postemergence, 0 to 100 scale, 0 is no effect, 100 is complete control, read-out: Ragweed plant response rating
[21] = postemergence, 0 to 100 scale, 0 is no effect, 100 is complete control, read-out: Ryegrass, Italian plant response rating
[22] = postemergence, 0 to 100 scale, 0 is no effect, 100 is complete control, read-out: Blackgrass plant response rating
[23] = postemergence, 0 to 100 scale, 0 is no effect, 100 is complete control, read-out: Foxtail, Giant plant response rating
[24] = Postemergence, visual rating about 10 d after treatment, read-out: Barnyardgrass plant response rating (0 to 100 scale, 0 no effect, 100 complete control)
[25] = Postemergence, visual rating about 10 d after treatment, read-out: Wheat plant response rating (0 to 100 scale)
[26] = Postemergence, visual rating about 10 d after treatment, read-out: Ragweed plant response rating (0 to 100 scale)
[27] = Postemergence, visual rating about 10 d after treatment, read-out: Ryegrass, Italian plant response rating (0 to 100 scale)
[28] = Postemergence, visual rating about 10 d after treatment, read-out: Foxtail, Giant plant response rating (0 to 100 scale)
[29] = postemergence, visual injury after approximately 10 d, 0 to 100 scale (0 no effect, 100 complete control), read-out: Plant response rating, Barnyardgrass
[30] = postemergence, visual injury after approximately 10 d, 0 to 100 scale (0 no effect, 100 complete control), read-out: Plant response rating, Ragweed
[31] = postemergence, visual injury after approximately 10 d, 0 to 100 scale (0 no effect, 100 complete control), read-out: Plant response rating, Ryegrass, Italian
[32] = postemergence, visual injury after approximately 10 d, 0 to 100 scale (0 no effect, 100 complete control), read-out: Plant response rating, Blackgrass
[33] = postemergence, visual injury after approximately 10 d, 0 to 100 scale (0 no effect, 100 complete control), read-out: Plant response rating, Foxtail, Giant

Row | Structure (SMILES) | pest or weed control at 125 g/ha [1, 7] [%] | pest or weed control at 500 g/ha [1, 8] [%] | plant injury at 500 g/ha [2, 9] [%] | pest or weed control at 125 g/ha [3, 10] [%] | pest or weed control at 500 g/ha [3, 11] [%] | pest or weed control at 125 g/ha [4, 12] [%] | pest or weed control at 500 g/ha [4, 13] [%] | pest or weed control at 125 g/ha [5, 14] [%] | pest or weed control at 125 g/ha [6, 16] [%] | pest or weed control at 500 g/ha [6, 17] [%] | pest or weed control at 125 g/ha [1, 24] [%] | plant injury at 125 g/ha [2, 25] [%] | pest or weed control at 125 g/ha [6, 28] [%] | pest or weed control at 125 g/ha [1, 29] [%] | pest or weed control at 125 g/ha [3, 30] [%] | pest or weed control at 125 g/ha [4, 31] [%] | pest or weed control at 125 g/ha [5, 32] [%] | pest or weed control at 125 g/ha [6, 33] [%] | also measured
1 | CN1C[C@H](c2ccc(C(F)F)cc2)[C@@H](C(=O)Nc2ccc(F)c(F)c2F)C1=O [Compound 1260] | 90 | 90 | 90 | 50 | 70 | 60 | 80 | 70 | 80 | 90 | – | – | – | – | – | – | – | – | pest or weed control at 500 g/ha [5, 15]: 80%
2 | CSc1ccccc1NC(=O)[C@H]1C(=O)N(C)CC[C@@H]1c1ccc(C(F)(F)F)cc1 [Compound 1227] | 0 | – | – | 0 | – | 0 | – | 0 | 0 | – | – | – | – | – | – | – | – | – | pest or weed control at 500 g/ha [1, 18]: 70%; plant injury at 125 g/ha [2, 19]: 0%; plant injury at 500 g/ha ([2]; postemergence, 0 to 100 scale, 0 is no effect, 100 is complete control, read-out: Wheat plant response rating): 0%; pest or weed control at 500 g/ha [3, 20]: 0%; pest or weed control at 500 g/ha [4, 21]: 0%; pest or weed control at 500 g/ha [5, 22]: 0%; pest or weed control at 500 g/ha [6, 23]: 0%
3 | CN1C[C@H](c2ccc(C(F)F)cc2)[C@@H](C(=O)Nc2cccc(F)c2F)C1=O [Compound 1383] | – | 100 | 80 | – | 60 | – | 50 | – | – | 90 | 100 | 60 | 90 | – | – | – | – | – | pest or weed control at 125 g/ha [3, 26]: 50%; pest or weed control at 125 g/ha [4, 27]: 40%; pest or weed control at 125 g/ha ([5]; Postemergence, visual rating about 10 d after treatment, read-out: Blackgrass plant response rating (0 to 100 scale)): 40%; pest or weed control at 500 g/ha [5, 15]: 50%
4 | O=C1NC[C@H](c2cccc(C(F)(F)F)c2)C1C(=O)Nc1ccccc1CO (stereo partly drawn) [Compound 1244] | 50 | – | – | 0 | – | 0 | – | 0 | 50 | – | – | – | – | – | – | – | – | – | pest or weed control at 500 g/ha [1, 18]: 80%; plant injury at 125 g/ha [2, 19]: 0%; pest or weed control at 500 g/ha [3, 20]: 0%; pest or weed control at 500 g/ha [4, 21]: 30%; pest or weed control at 500 g/ha [5, 22]: 50%; pest or weed control at 500 g/ha [6, 23]: 90%
5 | O=C1NC[C@H](c2ccc(OC(F)F)cc2)[C@H]1C(=O)Nc1ccc(F)cc1F [Compound 1325] | – | 90 | 0 | – | 0 | – | 0 | – | – | 90 | 90 | 0 | 80 | – | – | – | – | – | pest or weed control at 125 g/ha [3, 26]: 0%; pest or weed control at 125 g/ha [4, 27]: 0%
6 | Cc1cc([C@H]2CN(C)C(=O)[C@@H]2C(=O)Nc2ccccc2F)cc(C)c1C [Compound 797] | – | – | – | – | – | – | – | – | – | – | – | – | – | 90 | 0 | 40 | 0 | 90 | pest or weed control at 31 g/ha ([1]; Postemergence, 31 g ai/ha, visual injury after approx. 10 d, 0 to 100 scale, 0 no effect, 100 complete control, read-out: Plant response rating, Barnyardgrass): 90%; plant injury at 31 g/ha ([2]; Postemergence, 31 g ai/ha, visual injury after approx. 10 d, 0 to 100 scale, 0 no effect, 100 complete control, read-out: Plant response rating, Wheat): 0%; pest or weed control at 31 g/ha ([3]; Postemergence, 31 g ai/ha, visual injury after approx. 10 d, 0 to 100 scale, 0 no effect, 100 complete control, read-out: Plant response rating, Ragweed): 0%; pest or weed control at 31 g/ha ([4]; Postemergence, 31 g ai/ha, visual injury after approx. 10 d, 0 to 100 scale, 0 no effect, 100 complete control, read-out: Plant response rating, Ryegrass, Italian): 0%; pest or weed control at 31 g/ha ([5]; Postemergence, 31 g ai/ha, visual injury after approx. 10 d, 0 to 100 scale, 0 no effect, 100 complete control, read-out: Plant response rating, Blackgrass): 0%; pest or weed control at 31 g/ha ([6]; Postemergence, 31 g ai/ha, visual injury after approx. 10 d, 0 to 100 scale, 0 no effect, 100 complete control, read-out: Plant response rating, Foxtail, Giant): 80%
7 | O=C1NC[C@H](c2ccc(C3CC3)cc2)[C@H]1C(=O)Nc1ccccc1F [Compound 727] | – | – | – | – | – | – | – | – | – | – | – | – | – | 80 | 0 | 0 | 30 | 40 | plant injury at 125 g/ha ([2]; postemergence, visual injury after approximately 10 d, 0 to 100 scale (0 no effect, 100 complete control), read-out: Plant response rating, Wheat): 0%
8 | O=C1NCC(c2ccccc2)C1C(=O)Nc1ccccc1Oc1ccccc1 (stereo not drawn) [Compound 1357] | – | 0 | 0 | – | – | – | – | – | – | 0 | 0 | 0 | 0 | – | – | – | – | – | –
9 | O=C1NCC(c2ccccc2)C1C(=O)Nc1cccnc1 (stereo not drawn) [Compound 1356] | – | 0 | 0 | – | – | – | – | – | – | 0 | 0 | 0 | 0 | – | – | – | – | – | –
10 | CN1C[C@H](c2ccc(OC(F)F)cc2)[C@@H](C(=O)Nc2ccccc2S(C)(=O)=O)C1=O [Compound 788] | – | – | – | – | – | – | – | – | – | – | – | – | – | 80 | 40 | 20 | 20 | 70 | –
